Laboratory results published in PubChem BioAssay AID248 (DTP/NCI, 2004).
Values joined by “and” are separate entries in the source; they are usually repeats but may differ in a detail not shown here. Equal entries are not always repeated. Toxic doses and inconclusive results are not listed. No stated cut-off is given here; in the data, active means T/C of 150% or more; inactive means T/C below 125%.

System: L1210 leukemia ip in BDF1 mice, survival T/C
Assay: NCI In Vivo Anticancer Drug Screen. Data for tumor model L1210 Leukemia (intraperitoneal) in B6D2F1 (BDF1) mice
Conditions: endpoint: mean survival time, higher = longer survival
Method in brief: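 Each compound was tested against a transplantable tumor grown in mice. The endpoint was survival, with treated animals benchmarked against vehicle controls as a simple ratio.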

[1] = dose: 100.0 mg/kg/injection, schedule: Q04DX003 (ip), vehicle: Klucel (hydroxypropylcellulose) (HPC)
[2] = dose: 200.0 mg/kg/injection, schedule: Q04DX003 (ip), vehicle: Klucel (hydroxypropylcellulose) (HPC)
[3] = dose: 400.0 mg/kg/injection, schedule: Q04DX003 (ip), vehicle: Klucel (hydroxypropylcellulose) (HPC)
[4] = dose: 50.0 mg/kg/injection, schedule: Q01DX001 (sc), vehicle: steriod suspending solution
[5] = dose: 100.0 mg/kg/injection, schedule: Q01DX001 (sc), vehicle: steriod suspending solution
[6] = dose: 100.0 mg/kg/injection, schedule: Q04DX002 (ip), vehicle: Klucel (hydroxypropylcellulose) (HPC)
[7] = dose: 200.0 mg/kg/injection, schedule: Q04DX002 (ip), vehicle: Klucel (hydroxypropylcellulose) (HPC)
[8] = dose: 400.0 mg/kg/injection, schedule: Q04DX002 (ip), vehicle: Klucel (hydroxypropylcellulose) (HPC)
[9] = dose: 100.0 mg/kg/injection, schedule: Q04DX003 (ip), vehicle: saline with Tween-80
[10] = dose: 200.0 mg/kg/injection, schedule: Q04DX003 (ip), vehicle: saline with Tween-80
[11] = dose: 400.0 mg/kg/injection, schedule: Q04DX003 (ip), vehicle: saline with Tween-80

Measured: T/C

CCOC(=O)C(C)Nc1ccccc1 (stereo unspecified)
inactive: dose: 100.0 mg/kg/injection, schedule: Q01DX009 (ip), vehicle: Klucel (hydroxypropylcellulose) (HPC) 100 % of control | [1] 103 % of control | dose: 200.0 mg/kg/injection, schedule: Q01DX009 (ip), vehicle: Klucel (hydroxypropylcellulose) (HPC) 104 % of control | [2] 118 % of control | dose: 400.0 mg/kg/injection, schedule: Q01DX009 (ip), vehicle: Klucel (hydroxypropylcellulose) (HPC) 98 % of control | [3] 98 % of control

O=C(c1ccccc1)N(c1ccccc1)c1cccc(Cl)n1
inactive: dose: 50.0 mg/kg/injection, schedule: Q01DX009 (ip), vehicle: saline with Tween-80 93 % of control | dose: 100.0 mg/kg/injection, schedule: Q01DX009 (ip), vehicle: saline with Tween-80 93 % of control | dose: 200.0 mg/kg/injection, schedule: Q01DX009 (ip), vehicle: saline with Tween-80 90 % of control

COC(=O)NCc1nc2cc3c[nH][nH]c3cc2n1
inactive: dose: 75.0 mg/kg/injection, schedule: Q01DX001 (ip), vehicle: carboxymethylcellulose (CMC) 91 % of control

COc1ccc(OC)c(C(=O)CCCCCCCCC(=O)O)c1
inactive: [1] 109 % of control | [2] 95 % of control | [3] 101 % of control

c1ccc(SCCCCSc2ccccc2)cc1
inactive: dose: 75.0 mg/kg/injection, schedule: Q01DX009 (ip), vehicle: saline 107 % of control | dose: 75.0 mg/kg/injection, schedule: Q04DX003 (ip), vehicle: saline 95 % of control | dose: 150.0 mg/kg/injection, schedule: Q01DX009 (ip), vehicle: saline 90 % of control | dose: 150.0 mg/kg/injection, schedule: Q04DX003 (ip), vehicle: saline 100 % of control | dose: 300.0 mg/kg/injection, schedule: Q01DX009 (ip), vehicle: saline 93 % of control | dose: 300.0 mg/kg/injection, schedule: Q04DX003 (ip), vehicle: saline 97 % of control

O=C(O)c1cc2ccccc2c(Br)c1O.OC1CCCC2CCC[N-]C12.[Cu+]
inactive: dose: 4.0 mg/kg/injection, schedule: Q01DX015 (sc), vehicle: steriod suspending solution 97 % of control | dose: 16.0 mg/kg/injection, schedule: Q01DX015 (sc), vehicle: steriod suspending solution 103 % of control | dose: 32.0 mg/kg/injection, schedule: Q01DX015 (sc), vehicle: steriod suspending solution 100 % of control | [4] 98 % of control | [5] 111 % of control

Cc1nc(N)[nH]c(=O)c1CCC(C)C
inactive: [6] 93 % of control | [7] 100 % of control | [8] 96 % of control

CCC(CO)NC(=O)/C=C/c1ccc(Cl)cc1 (stereo unspecified)
inactive: dose: 100.0 mg/kg/injection, schedule: Q01DX001 (ip), vehicle: saline with Tween-80 101 % of control | [9] 110 % of control | dose: 200.0 mg/kg/injection, schedule: Q01DX001 (ip), vehicle: saline with Tween-80 100 % of control | [10] 108 % of control | dose: 400.0 mg/kg/injection, schedule: Q01DX001 (ip), vehicle: saline with Tween-80 92 % of control | [11] 98 % of control

Cc1ccc(-n2c(=O)c(N=Nc3ccccc3C)c(O)n(-c3ccccc3Cl)c2=S)cc1
inactive: dose: 50.0 mg/kg/injection, schedule: Q01DX001 (ip), vehicle: Klucel (hydroxypropylcellulose) (HPC) 104 % of control | dose: 100.0 mg/kg/injection, schedule: Q01DX001 (ip), vehicle: Klucel (hydroxypropylcellulose) (HPC) 94 % of control | dose: 200.0 mg/kg/injection, schedule: Q01DX001 (ip), vehicle: Klucel (hydroxypropylcellulose) (HPC) 98 % of control

C[C@]12CCC(=O)C=C1CC[C@@H]1[C@@H]2C(=O)C[C@@]2(C)[C@H]1CC[C@]2(O)C(=O)COP(=O)(Nc1ccccc1)Nc1ccccc1
inactive: [4] 102 % of control | [5] 98 % of control | dose: 200.0 mg/kg/injection, schedule: Q01DX001 (sc), vehicle: steriod suspending solution 102 % of control | dose: 400.0 mg/kg/injection, schedule: Q01DX001 (sc), vehicle: steriod suspending solution 98 % of control

CCP(=O)(CCP(=O)(c1ccccc1)c1ccccc1)c1ccccc1 (stereo unspecified)
inactive: dose: 25.0 mg/kg/injection, schedule: Q04DX002 (ip), vehicle: saline with Tween-80 97 % of control | dose: 50.0 mg/kg/injection, schedule: Q04DX002 (ip), vehicle: saline with Tween-80 103 % of control | dose: 100.0 mg/kg/injection, schedule: Q04DX002 (ip), vehicle: saline with Tween-80 106 % of control

CCCCCCCCCC(=O)Nc1ccc(C)cc1C
inactive: [6] 97 % of control | [7] 101 % of control | [8] 90 % of control

CCCCN1CC2CCCC1O2 (stereo unspecified)
inactive: dose: 50.0 mg/kg/injection, schedule: Q01DX001 (ip), vehicle: saline 97 % of control | dose: 100.0 mg/kg/injection, schedule: Q01DX001 (ip), vehicle: saline 95 % of control

CC(=O)[C@H]1CC[C@H]2[C@@H]3CCC4=CC(=O)[C@H](C)C[C@]4(C)[C@@]3(F)[C@@H](O)C[C@]12C
inactive: dose: 125.0 mg/kg/injection, schedule: Q01DX Z (sc), vehicle: steriod suspending solution 105 % of control | dose: 250.0 mg/kg/injection, schedule: Q01DX Z (sc), vehicle: steriod suspending solution 111 % of control | dose: 375.0 mg/kg/injection, schedule: Q01DX Z (sc), vehicle: steriod suspending solution 105 % of control | dose: 500.0 mg/kg/injection, schedule: Q01DX Z (sc), vehicle: steriod suspending solution 103 % of control

CCc1ccc(N=Nc2ccc(CC)cc2)cc1
inactive: dose: 100.0 mg/kg/injection, schedule: Q01DX001 (ip), vehicle: carboxymethylcellulose (CMC) 98 % of control | dose: 200.0 mg/kg/injection, schedule: Q01DX001 (ip), vehicle: carboxymethylcellulose (CMC) 106 % of control | dose: 400.0 mg/kg/injection, schedule: Q01DX001 (ip), vehicle: carboxymethylcellulose (CMC) 101 % of control

COc1cc(C)c(OC)c(CCl)c1C
inactive: [9] 97 % of control | [10] 98 % of control | [11] 92 % of control

COc1cc(CCN)ccc1O
inactive: dose: 100.0 mg/kg/injection, schedule: Q01DX009 (ip), vehicle: saline 87 % of control | dose: 200.0 mg/kg/injection, schedule: Q01DX009 (ip), vehicle: saline 90 % of control | dose: 400.0 mg/kg/injection, schedule: Q01DX009 (ip), vehicle: saline 95 % of control

NC(CSS(=O)(=O)O)=NC1CC2CCC1C2 (stereo unspecified)
inactive: dose: 6.25 mg/kg/injection, schedule: Q01DX001 (ip), vehicle: saline 97 % of control | dose: 6.25 mg/kg/injection, schedule: Q01DX009 (ip), vehicle: Klucel (hydroxypropylcellulose) (HPC) 98 % of control | dose: 6.25 mg/kg/injection, schedule: Q01DX009 (ip), vehicle: saline 95 % of control and 103 % of control | dose: 6.25 mg/kg/injection, schedule: Q04DX002 (ip), vehicle: saline 112 % of control and 117 % of control | dose: 12.5 mg/kg/injection, schedule: Q01DX001 (ip), vehicle: saline 95 % of control | dose: 12.5 mg/kg/injection, schedule: Q01DX009 (ip), vehicle: Klucel (hydroxypropylcellulose) (HPC) 95 % of control | dose: 12.5 mg/kg/injection, schedule: Q01DX009 (ip), vehicle: saline 100 % of control and 91 % of control | dose: 12.5 mg/kg/injection, schedule: Q04DX002 (ip), vehicle: Klucel (hydroxypropylcellulose) (HPC) 100 % of control | dose: 12.5 mg/kg/injection, schedule: Q04DX002 (ip), vehicle: saline 101 % of control and 87 % of control | dose: 25.0 mg/kg/injection, schedule: Q01DX001 (ip), vehicle: saline with Tween-80 112 % of control | dose: 25.0 mg/kg/injection, schedule: Q01DX001 (ip), vehicle: saline 92 % of control | dose: 25.0 mg/kg/injection, schedule: Q01DX009 (ip), vehicle: Klucel (hydroxypropylcellulose) (HPC) 104 % of control | dose: 25.0 mg/kg/injection, schedule: Q01DX009 (ip), vehicle: saline 94 % of control and 88 % of control | dose: 25.0 mg/kg/injection, schedule: Q04DX002 (ip), vehicle: Klucel (hydroxypropylcellulose) (HPC) 92 % of control | dose: 50.0 mg/kg/injection, schedule: Q04DX002 (ip), vehicle: saline 117 % of control

COc1cc2c(cc1OC)C(=O)N(C)CC2
inactive: dose: 100.0 mg/kg/injection, schedule: Q01DX009 (ip), vehicle: water 95 % of control | dose: 100.0 mg/kg/injection, schedule: Q04DX003 (ip), vehicle: water 97 % of control | dose: 200.0 mg/kg/injection, schedule: Q01DX009 (ip), vehicle: water 102 % of control | dose: 200.0 mg/kg/injection, schedule: Q04DX003 (ip), vehicle: water 97 % of control | dose: 400.0 mg/kg/injection, schedule: Q04DX003 (ip), vehicle: water 100 % of control
